Assay results taken from patent US20080131867A1, “Method for Determining the Effectiveness of a Treatment for Preeclampsia” (priority 2006, published 2008).

Tests used:
PP13 [1] = assay: Allocation of high-risk women to serum PP13 quartiles after low dose aspirin; type: in vivo, human; conditions: for Frequency of 1st quartile cases / Frequency of 2nd quartile cases / Frequency of 3rd quartile cases: high-risk women
Protocol: (§1) Unless otherwise indicated, in all experiments, PP13 was measured (blinded to pregnancy outcome) in maternal venous serum by solid-phase sandwich ELISA assay. The PP13 level was calibrated according to standard curves prepared from calibrated standards of recombinant PP13. Concentrations are given in pg PP13/ml serum.
First trimester PP13 could serve as a measure to assess the risk for a later development of preeclampsia. According to FIG. 2 and Table 1, in the first trimester, the majority of the women who will go on to develop preeclampsia have very low levels of PP13 while most women who will have a normal outcome have higher PP13 values. In one study summarized in Table 2 and FIG. 3, the PP13 level was measured at 8 weeks of gestation from 50 cases who went on to develop preeclampsia and in 290 cases with normal outcome. The method of multiples of the gestation-specific median (MoM) was used, and at MoM cutoffs of 0.45, the false positive rate was 10% and the sensitivity 87%. This means that 43 out of 50 preeclampsia cases and 29 out of 290 normal were identified as being at high risk. Thus, while the risk for PP13 in the population is 5%, in the group with PP13 below 0.45, the frequency of preeclampsia was 59% (more than 10 times above the frequency in the population not tested).
Sensitivity and specificity were calculated from the receiver operating characteristic (ROC) analysis based on the indicated MoM cutoffs of 0.45. Sensitivity value is provided in Table 2 in percentile for 10% false positive rate. The odds ratio for developing the pathology was determined by two methods of calculations:
1) modeling, that calculate the Odds ratio as already described above after taking into consideration the prevalence of the pathology in the population, and
2) the quartile assessment procedure, of calculating of the odds ratio for the development of preeclampsia based on the comparison of PP13 in the lowest quartile (25%) versus PP13 in the third quartile (75th percent).
(§2) If in the period specified above a medication is used, it is anticipated that it will bring a woman's PP13 level to the 2nd or 3rd or even the 4th quartile, corresponding to their reduced likelihood of developing preeclampsia. In the example described in Table 2, women with elevated risk to develop preeclampsia were orally treated from GW8 with a dose of […] aspirin (“low dose aspirin”) for either 2 or 3 weeks. […] Accordingly, women who were treated were anticipated to have lower risk to develop preeclampsia and their outcome should also be improved.
(§3) In the study shown in Table 2, of 150 women tested as being at high risk in the 8th week, 50 were not treated, 50 were treated with aspirin for two weeks and 50 were treated for 3 weeks. […] The calculation of their anticipated risk was reduced accordingly.
Sensitivity in percentile values are shown when the specificity was fixed to 90% (95% CI: 86%-93%), corresponding to having […] cases of false positives (10%).

[2] = tested on: women with elevated risk to develop preeclampsia; assay: Delivery outcome of high-risk women treated with low dose aspirin; type: in vivo, human; conditions: for Outcome: Normal (number of women) / Outcome: Preeclampsia (number of women): 50 treated
Protocol: as §2, §3

[3] = tested on: PP13 release from placenta explants; assay: Therapeutic effectiveness on PP13 release from standardized placenta explants in presence of patient serum (indirect method); type: cell-based, human
From the text: Scenario 1: Simple Direct Tailoring with a Diversity of Drugs. • We have standardized culture conditions for first trimester explants or explants obtained after delivery. • Explants could be the ones made of patients after delivery or those obtained by Chorionic villi sampling (CVS) at gestational weeks 10-12 or other placenta biopsies as the case may be. • Standardization means defined median viability index, protein content in the explant, total protein released to the medium, PP13 content in the explant and PP13 release from the explant, among others. • Drug effect in-vitro is the effect of drug applied to the culture medium on PP13 release from the placenta explant after 24 hr to 7 days. The effect is compared to the baseline release as measured without the drug. • The Therapeutic Index is thus the in-vitro relative effectiveness of the drug when applied to explants as measured by the difference between PP13 release with (PP13D1) and without (PP130) the drug by the equation: (PP130−PP13D1)/PP130, after normalizing to viability, protein content etc as described above, given all other parameters are the same. • It is important to note that in the first trimester (gestational weeks 6-13) PP13 in diseased patient is lower than Normal. Thus the therapeutic index is to return PP13 release is calculated as drugs that elevate PP13 release. In the third trimester (gestational week 26 and above), PP13 is higher in preeclamptic patients than normal. Thus the therapeutic index is decreasing PP13 release back to Normal. • According to the in-vitro therapeutic index one drug or a drug combinations are selected for the in-vivo interventional medication treatment. • Follow up: after selecting the drug to be administrating to the patient, bi-weekly blood testing follow up is recommended to be carried out by measuring the PP13 in the blood and calculating
If so, drugs that appears beneficial to standardized culture explants wouldn't work when applied together with the patient samples. It can be seen that the serum from the patient at high risk for preeclampsia caused serious inhibition of many of the types of treatment.

[4] = tested on: PP13 release from placental (villous) explants; assay: PP13 release from placental (villous) explants cultured 48 hours (FIGS. 7-11); type: cell-based, human
Protocol: The tissue of each woman was divided into 16 different portions, exposed each to diversified conditions and cultured for 48 hours;
The following results were obtained with placental (villous) explants from 16 cases of normal women, 12 cases of preeclampsia and 3 cases of HELLP women, which were cultured in DMEM/F12 for 48 hours at 6% or 20% O2. Conditioned media was collected after culture and tested for total protein and PP13. PP13 release was related to total protein.
The explants tested in Example 6 were retested using, in addition to the two oxygen levels, two different levels of magnesium, 0.7 mM and 1.4 mM.
Note that the latter combination also affected the HELLP cases. […]

[5] = tested on: PP13 release from cultured chorionic villi; assay: PP13 release from cultured chorionic villi of GW 9-10 (48 hr culture, ELISA); type: cell-based, human; conditions: for PP13 (pg/ml) release: 48 hr
Protocol: From left to right, the explants are shown at transfer (6 hours) and after 36 hr in culture. Cultures are grown in conditioned medium. After 48 hr in culture, the supernatant is collected, centrifuged and the […] is diluted in PBS and checked for the concentration of PP13 by sandwich ELISA using PP13 standards to calibrate the reaction OD to PP13 concentration. The PP13 level may be normalized to the gestational age according to the linear regression of the total points and to the protein level of the explant; […] The placenta cells/explants were cultured for 48 hr and PP13 was measured in the culture medium by ELISA (in the same manner as described in FIG. 1).

PP13 [6] = assay: Serum PP13 values and 1st-to-2nd trimester slope in women treated with vitamin E (FIG. 4); type: in vivo, human
Protocol: as §1
The slope may be calculated as follows:
Slope=(PP13(2nd trimester)−PP13(1st trimester)/GW(2nd trimester)−GW(1st trimester)).
Normal vs. preeclampsia slopes are shown in FIG. 4, and the cutoff between normal and preeclampsia to reach 80% sensitivity is a slope of 3.5. The slope helps to further verify the risk for preeclampsia.
If after establishing the risk by two tests the women at high risk are treated daily by administering the anti-oxidant vitamin E, the treated women have a lower slope (FIG. 4). From the relatively large confidence level one can see that not all women were affected in the same way. Thus, the approach can be further used to enable one to see how the slope can be reduced by medications and its correlation to the reduced risk to develop the pathology, thereby considering discontinuing the treatment, elevating the drug level or selecting a different treatment for individual patients. The combined and contingent approaches indicate that multiple testing is necessary only for women at risk whereas low risk patients may avoid repeated testing.

[7] = applied with serum from a Normal Patient
[8] = applied with serum from a Patient at high risk for preeclampsia

## CC(=O)Oc1ccccc1C(=O)O [Aspirin, salicylic acid (aspirin)]
PP13 [1]; 14 days aspirin
  Odds ratio (by modeling) for developing preeclampsia: 5.9
  Odds ratio (by quartiles) for developing preeclampsia: 5.6
  Frequency of 1st quartile cases: 20/50
  Frequency of 2nd quartile cases: 24/45
  Frequency of 3rd quartile cases: 5/50
PP13 [1]; 21 days aspirin
  Odds ratio (by modeling) for developing preeclampsia: 3.3
  Odds ratio (by quartiles) for developing preeclampsia: 3.2
  Frequency of 1st quartile cases: 14/50
  Frequency of 2nd quartile cases: 30/50
  Frequency of 3rd quartile cases: 5/50
PP13 [1]; aspirin for 2 or 3 weeks
  Numbers of patients in the 2nd and 3rd PP13 quartiles compared to the first quartile: elevated significantly
[2]; 14 days aspirin
  Outcome: Normal (number of women): 26 Normal
  Outcome: Preeclampsia (number of women): 24 Preeclampsia
[2]; 21 days aspirin
  Outcome: Normal (number of women): 33 Normal
  Outcome: Preeclampsia (number of women): 18 Preeclampsia
[2]; aspirin for 2 or 3 weeks
  Number of preeclampsia cases, treated vs. untreated groups: significantly lower
[3]; [7]
  Therapeutic Effectiveness on PP13 release from placenta explants: 74%
[3]; [8]
  Therapeutic Effectiveness on PP13 release from placenta explants: 40%

## [Cl-].[Cl-].[Mg+2] [Magnesium, MgCl2]
[4]; HELLP explants, hyperoxia (20%), increase in Mg (1.4 mM)
  Effect on PP13 release: elevated release of PP13
[4]; HELLP explants, normoxia (6%), elevated Mg (1.4 mM)
  Effect on PP13 release: elevated release of PP13
[4]; explants from normal pregnant women, elevated oxygen (20%) and MgCl2 (1.4 mM)
  Effect on PP13 release: not affected
[4]; preeclamptic explants, magnesium 1.4 mM in 6% oxygen
  Effect on PP13 release: not in 6% oxygen
[4]; preeclamptic explants, magnesium 1.4 mM in 20% oxygen
  Effect on PP13 release: brought back to the normal level
[3]; [7]
  Therapeutic Effectiveness on PP13 release from placenta explants: 50%
[3]; [8]
  Therapeutic Effectiveness on PP13 release from placenta explants: 20%

## O=O [Oxygen, oxygen]
[5]; 3 high risk women, no vitamin C
  Increase of PP13 release under 20% oxygen compared to 6% oxygen: ~2 factor
[5]; Case 1, normal risk, 20% oxygen (hyperoxia), no vitamin C
  PP13 (pg/ml) release: 14,250 pg/ml
[5]; Case 2, normal risk, 20% oxygen (hyperoxia), no vitamin C
  PP13 (pg/ml) release: 15,500 pg/ml
[5]; Case 3, high-risk (preeclampsia), 20% oxygen (hyperoxia), no vitamin C
  PP13 (pg/ml) release: 5,000 pg/ml
[5]; Case 3, high-risk (preeclampsia), 20% oxygen (hyperoxia), no vitamin C, listed as oxygen
  PP13 (pg/ml) release: 5000 pg/mL
[5]; Case 4, high-risk (preeclampsia), 20% oxygen (hyperoxia), no vitamin C
  PP13 (pg/ml) release: 4,300 pg/ml
[5]; Case 5, high-risk (preeclampsia), 20% oxygen (hyperoxia), no vitamin C
  PP13 (pg/ml) release: 7,900 pg/ml
[4]; explants from HELLP cases, 20% vs 6% oxygen, 48 hours, listed as O2
  Effect on PP13 release: reduced by 20% O2 to below the normal level
[4]; explants from HELLP cases, 20% vs 6% oxygen, 48 hours, listed as hyperoxia
  Effect on PP13 release: almost complete halt in PP13 release
[4]; explants from normal women, 20% vs 6% oxygen, 48 hours
  Effect on PP13 release: no effect
[4]; explants from normal women, 20% vs 6% oxygen, 48 hours, listed as hyperoxia
  Effect on PP13 release: remained at the same level
[4]; explants from preeclampsia women, 20% vs 6% oxygen, 48 hours
  Effect on PP13 release: decreased significantly
[4]; explants from preeclampsia women, 20% vs 6% oxygen, 48 hours, listed as hyperoxia
  Effect on PP13 release: significantly less PP13 release

## O=C1O[C@H]([C@@H](O)CO)C(O)=C1O [Vitamin C, vitamin C]
[5]; 3 high risk women, 6% oxygen, 48 hours incubation
  Increase of PP13 release with vitamin C vs. without: 3-4 times
[5]; Case 1, normal risk, 6% oxygen, with vitamin C
  PP13 (pg/ml) release: 14,300 pg/ml
[5]; Case 1, normal risk, 20% oxygen, with vitamin C
  PP13 (pg/ml) release: 14990 pg/mL
[5]; Case 2, normal risk, 6% oxygen, with vitamin C
  PP13 (pg/ml) release: 15,390 pg/ml
[5]; Case 2, normal risk, 20% oxygen, with vitamin C
  PP13 (pg/ml) release: 15,300 pg/ml
[5]; Case 3, high-risk (preeclampsia), 6% oxygen, with vitamin C
  PP13 (pg/ml) release: 12,030 pg/ml
[5]; Case 3, high-risk (preeclampsia), 20% oxygen, with vitamin C
  PP13 (pg/ml) release: 5,100 pg/ml
[5]; Case 4, high-risk (preeclampsia), 6% oxygen, with vitamin C
  PP13 (pg/ml) release: 9,230 pg/ml
[5]; Case 4, high-risk (preeclampsia), 20% oxygen, with vitamin C
  PP13 (pg/ml) release: 4,421 pg/ml
[5]; Case 5, high-risk (preeclampsia), 6% oxygen, with vitamin C
  PP13 (pg/ml) release: 15760 pg/mL
[5]; Case 5, high-risk (preeclampsia), 6% oxygen, with vitamin C, listed as vitamin C
  PP13 (pg/ml) release: 15,790 pg/ml
[5]; Case 5, high-risk (preeclampsia), 20% oxygen, with vitamin C
  PP13 (pg/ml) release: 8,100 pg/ml
[5]; high risk women, 20% oxygen (hyperoxia)
  Additional effect of vitamin C on PP13 release under 20% oxygen: no additional effect

## aprotinin
[4]; HELLP explants, normoxia and high Mg (FIG. 11B)
  Effect on PP13 release: almost back to normal

## heparin
[4]; hyperoxia and normal Mg (FIG. 11C)
  Effect on PP13 release: almost back to normal
[3]; [7]
  Therapeutic Effectiveness on PP13 release from placenta explants: 56%
[3]; [8]
  Therapeutic Effectiveness on PP13 release from placenta explants: 20%

## vitamin E
PP13 [6]; 16-20 weeks, vitamin E
  Effect on PP13: no significant effect
PP13 [6]; cases of preeclampsia, 6-10 weeks, early application of vitamin E
  Effect on PP13 level/release: doubles PP13 release towards the normal level
PP13 [6]; normal patients, 6-10 weeks, vitamin E
  Effect on PP13 release: without affecting PP13 release
PP13 [6]; preeclamptic women, 24-28 weeks, vitamin E
  Effect on PP13 release: reduces PP13 release back to the normal level
PP13 [6]; women at high risk treated daily with vitamin E
  PP13 slope (1st-to-2nd trimester): lower slope
[3]; [7]
  Therapeutic Effectiveness on PP13 release from placenta explants: 30%
[3]; [8]
  Therapeutic Effectiveness on PP13 release from placenta explants: 0%
